Experiment [1] has as its target T1, cloned human β2-adrenergic receptor (Homo sapiens, UniProt P07550).
T1 construct: expressed in transfected cells; host or cells: CHO (membranes)
Description: [3H]-dihydroalprenolol binding on CHO cell membranes, β2-adrenergic receptor. The protocol:
(§1) The cell lines of “Chinese hamster ovary” (CHO) that individually express the three subtypes of the human adrenergic receptor (β1, β2 or β3 were grown at 37° C. in an atmosphere composed of 5% of CO2 and 95% of air in a culture medium of Dulbecco's Modified Eagle Medium with a nutrient mixture of F12 (DMEM/F12) supplemented with 10% of bovine fetal Serum, 2 mM of L-glutamine, 100 units/ml of penicillin G and 100 μg/ml of […].
(§2) The preconfluence cells were washed with cold PBS, removed from the surface of the plate, collected in cold lysis buffer (10×10^6/ml; 5 mM Tris/HCl, 2 mM EDTA, pH 7.4 at 4° C.) and homogenized with a Brinkmann Polytron (5 for 3×10 secs). The cell membranes obtained were then […] for 10 mins at 4° C. at 1000 g. The supernatant was centrifuged at 10000 g for 30 min. at 4° C. The resultant membrane pellet was resuspended in cold incubation buffer (50 mM Tris/HCl, 10 mM MgCl2, pH 7.4 for the binding experiments on the β1-adrenergic receptors; 50 mM Tris/HCl, pH 7.4 for the binding experiments of on the β2-adrenergic receptors) and its protein content was then determined. The membrane suspension obtained was used immediately or stored at −80° C. until used in the binding experiments.
(§3) The saturation experiments were conducted by incubating the cell membranes (50 μg of protein) in 500 μl of incubation buffer, containing increasing concentrations of [^3H]-dihydroalprenolol (0.1 nM, 0.5 nM, 1 nM, 3 nM, 5 nM, 10 nM). The β1-adrenergic receptors were incubated at 30° C. for 30 min. while the incubation lasted 90 min. in the case of the β2-adrenergic receptor. […] The filters were then washed (3×1 ml) with cold incubation buffer. The residual radioactivity of the filters was measured using a Beckmann LS6500 Multi-purpose scintillator.
(§4) The competitive experiments were conducted by incubation of 50 μg of protein with increasing quantities of the compound under examination (from 10^−9M to 10^−4M) and 4 nM [^3H]-dihydroalprenolol for the β1-adrenergic receptor or 0.4 nM for the β2-adrenergic receptor, in a total volume of 500 μl of incubation buffer.

Experiment [2] has as its target T2, cloned human beta-3 adrenergic receptor (Homo sapiens, UniProt P13945).
T2 construct: expressed in transfected cells; host or cells: CHO-K1
Description: cAMP accumulation (DELFIA cAMP-Eu assay) in CHO-K1 cells expressing the beta-3 adrenergic receptor. Type of experiment: cell-based. Conditions: for Emax: CHO-K1, maximum cAMP response, isoproterenol 10^−4 M = 100%, absence of agonists = 0%, read-out: Intrinsic Activity (IA %); for EC50: concentration of ligand producing 50% of maximum cAMP accumulation, CHO-K1 human β3, SEM, n ≧ 3; for type of activity on the beta-3 adrenergic receptor (in words): statement in the description. The protocol:
The determination of the beta-3 adrenergic activity of the compounds of general formula (I) was performed by measuring the levels of cAMP in cell lines of CHO-K1 that express the cloned human beta-3 adrenergic receptor. The accumulation of cAMP is directly correlated to the beta-3 adrenergic activity of the compound and is a predictive measure of the effectiveness of the ligand. The accumulation of cAMP produced by the compounds 1a-1h was determined using the Dissociation Enhanced Lanthanide Fluorescence Immunoassay (DELFIA®, Gabriel, D.; Vernier, M.; Pfeifer, M. J.; Dasen, B.; Tenaillon, L.; Bouhelal, R. Assay and Drug Development Technologies 2003, 1, 291-303), endowed with greater sensitivity and greater accuracy than [α-^32P] radioisotope methods (Hoffmann, C.; Leitz, M. R.; Obendorf-Maass, S.; Lohse, M. J.; Klotz, K.-N. Naunyn-Schmiedeberg's Arch. Pharmacol. 2004, 369, 151-159) or [^3H] (Nannies, K. M.; Briend-Sutren, M. M.; Emorine, L. J.; Delavier-Klutchko, C.; Marullo, S.; Strosberg, A. D. Eur. J. Biochem. 1991, 196, 357-361) of determining the levels of cAMP in cell lines.
as §1
The DELFIA test (Dissociation Enhanced Lanthanide […] Immuno Assay) used for measuring the levels of cAMP was performed according to the protocol supplied by PerkinElmer Life Science. The optimization of the experimental conditions (quantity of cells, times of incubation) is reported below.
A plate of confluence cells was trypsinized and the cells were resuspended in the aforementioned culture medium, sown at a concentration of 50000 cells/200 μl per well in a 96-well plate and cultivated overnight in a CO2 incubator. The culture medium was then aspirated from every well and substituted with 100 μl of culture substrate without serum, preheated at 37° C. The plate was then put back into a CO2 incubator for 30 mins at 37° C. 50 μl of IBMX (3-isobutyl-1-methylxanthine) 1 mM, an inhibitor of the phosphodiesterase was then added to all the wells. In some wells 50 μl of forskolin (compound used for the validation of the DELFIA) was added at different concentrations (100 nM, 500 nM, 1 μM, 10 μM, 50 μM) and in the other wells 50 μl of the compounds to be tested at the same concentrations as the forskolin; the plate was then again incubated for 30 min at 37° C. The cells, at this point, were lysed and incubated at room temperature for 5 min. The plate was used immediately for measuring the levels of cAMP or stored at 4° C. until the measurement was carried out. The fluorescence was determined using a multilabel time-resolved fluorimetry technique performed on a PerkinElmer 1420 Victor®. The excitation and emission wavelengths were 340 nm and 615 nm respectively.
Background: Changes in cAMP serve as a functional read-out for many G protein-coupled receptors.

The target of experiment [3] is T3, cloned human β1-adrenergic receptor (Homo sapiens, UniProt P08588).
T3 construct: expressed in transfected cells; host or cells: CHO (membranes)
Description: [3H]-dihydroalprenolol binding on CHO cell membranes, β1-adrenergic receptor. The protocol: as §1, §2, §3, §4

The mark [4] stands for this setting: human β2, Cheng-Prusoff, 0.4 nM [3H]-dihydroalprenolol, read-out: Binding Ki, β2.
Setting [5] is: human β1, Cheng-Prusoff, 4 nM [3H]-dihydroalprenolol, read-out: Binding Ki, β1.

Where two headings read alike, the source gives them in different places. Some results are limits rather than exact numbers.

T1 sequence (P07550 whole entry): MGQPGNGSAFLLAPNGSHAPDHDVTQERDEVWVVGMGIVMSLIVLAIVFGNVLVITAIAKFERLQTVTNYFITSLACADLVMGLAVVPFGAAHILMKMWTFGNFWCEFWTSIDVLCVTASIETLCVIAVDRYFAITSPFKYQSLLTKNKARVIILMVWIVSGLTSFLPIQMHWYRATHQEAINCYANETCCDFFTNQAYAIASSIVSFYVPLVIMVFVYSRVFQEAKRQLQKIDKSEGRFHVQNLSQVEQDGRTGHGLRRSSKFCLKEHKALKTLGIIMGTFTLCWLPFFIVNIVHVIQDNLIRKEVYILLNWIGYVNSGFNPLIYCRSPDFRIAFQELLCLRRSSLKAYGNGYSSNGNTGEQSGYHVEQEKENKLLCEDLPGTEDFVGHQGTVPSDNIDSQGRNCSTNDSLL
T2 sequence (P13945 whole entry): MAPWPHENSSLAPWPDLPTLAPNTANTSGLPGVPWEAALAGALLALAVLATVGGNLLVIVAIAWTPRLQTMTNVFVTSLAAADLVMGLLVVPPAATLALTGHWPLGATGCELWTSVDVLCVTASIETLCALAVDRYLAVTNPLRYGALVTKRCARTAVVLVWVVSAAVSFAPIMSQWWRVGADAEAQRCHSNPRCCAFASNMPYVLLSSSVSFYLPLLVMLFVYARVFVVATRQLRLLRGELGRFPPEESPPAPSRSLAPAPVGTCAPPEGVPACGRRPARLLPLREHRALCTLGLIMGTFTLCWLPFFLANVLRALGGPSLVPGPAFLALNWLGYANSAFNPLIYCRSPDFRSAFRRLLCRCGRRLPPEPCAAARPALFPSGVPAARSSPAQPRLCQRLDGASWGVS
T3 sequence (P08588 whole entry): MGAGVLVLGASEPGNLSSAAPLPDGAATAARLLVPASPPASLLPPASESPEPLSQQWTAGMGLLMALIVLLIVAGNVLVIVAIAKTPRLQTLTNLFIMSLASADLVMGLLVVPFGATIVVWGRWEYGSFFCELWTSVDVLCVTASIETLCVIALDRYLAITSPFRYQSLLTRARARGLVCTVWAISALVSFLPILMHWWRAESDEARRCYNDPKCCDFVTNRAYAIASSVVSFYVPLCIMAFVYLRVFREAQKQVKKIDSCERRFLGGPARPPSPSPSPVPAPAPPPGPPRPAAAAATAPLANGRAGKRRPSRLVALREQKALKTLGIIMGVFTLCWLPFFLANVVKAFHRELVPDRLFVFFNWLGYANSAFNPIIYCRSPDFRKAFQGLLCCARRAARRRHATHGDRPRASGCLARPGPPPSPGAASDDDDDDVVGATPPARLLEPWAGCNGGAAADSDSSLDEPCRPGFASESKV

With `CC(C)(Oc1ccc(CCNCC(O)c2ccccc2)cc1)C(=O)O` (racemic) [Compound 1a, (±)-2-{4-[2-(2-phenyl-2-hydroxyethylamino)ethyl]phenoxy}-2-methylpropionic acid], in experiment [1] (setting [4]), the Ki (as a rule, a dissociation constant, usually derived from enzyme kinetics or from competition with a known ligand) was more than 5000 nM. Besides, in experiment [2], the Emax was 68%, the EC50 (usually the concentration needed to bring the measured effect to its halfway point) was 4.9 ± 0.25 nM and the “type of activity on the beta-3 adrenergic receptor (in words)” value (“type of activity” below) was “behaves as an agonist of the beta-3 adrenergic receptor independently of the configuration of the chiral atom”. In addition, the Ki in experiment [3] (setting [5]) is more than 7000 nM.
For the compound `CC(Oc1ccc(CCNCC(O)c2ccccc2)cc1)C(=O)O` (racemic) [Compound 1d, (±)-2-{4-[2-(2-phenyl-2-hydroxyethylamino)ethyl]phenoxy}propionic acid], the Ki in experiment [1] (setting [4]) is more than 5000 nM. In experiment [2], the Emax is 65% and the EC50 turned out to be 3.8 ± 0.7 nM. Also, the Ki in experiment [3] (setting [5]) was more than 7000 nM.
In the same order, the values of `CC(C)(Oc1ccc(CCNC[C@H](O)c2ccccc2)cc1)C(=O)O` [Compound 1b, (2R)-(−)-2-{4-[2-(2-phenyl-2-hydroxyethylamino)ethyl]phenoxy}-2-methylpropionic acid] are more than 5000 nM, 72%, 3.9 ± 2.1 nM and more than 7000 nM.
Take `CC(C)(Oc1ccc(CCNC[C@@H](O)c2ccccc2)cc1)C(=O)O` [Compound 1c, (2S)-(+)-2-{4-[2-(2-phenyl-2-hydroxyethylamino)ethyl]phenoxy}-2-methylpropionic acid]: the Ki in experiment [1] (setting [4]) is more than 5000 nM; in experiment [3] (setting [5]) it was more than 7000 nM. In addition, the Emax in experiment [2] worked out at 76%. Further, the EC50 in experiment [2] came out at 3.4 ± 0.8 nM.
For `C[C@H](Oc1ccc(CCNC[C@@H](O)c2ccccc2)cc1)C(=O)O` [Compound 1e, (2S)-(+)-2-{4-[2-((2S)-2-phenyl-2-hydroxyethylamino)ethyl]phenoxy}propionic acid], the Ki in experiment [1] (setting [4]) was more than 5000 nM. For the same compound, in experiment [2], the Emax was -64%, the EC50 is 192 ± 19 nM and the “type of activity” value is given as “inverse agonist activity”. For the same compound, the Ki in experiment [3] (setting [5]) was more than 7000 nM.
As to `C[C@H](Oc1ccc(CCNC[C@H](O)c2ccccc2)cc1)C(=O)O` [Compound 1f, (2S)-(−)-2-{4-[2-((2R)-2-phenyl-2-hydroxyethylamino)ethyl]phenoxy}propionic acid], the Ki in experiment [1] (setting [4]) was more than 5000 nM. Also, in experiment [2], the Emax amounted to 50%, the EC50 came out at 2.2 ± 0.7 nM and the “type of activity” value is given as “particularly active compound as agonist”. Also, the Ki in experiment [3] (setting [5]) is more than 7000 nM.
In the same order, the values of `C[C@@H](Oc1ccc(CCNC[C@@H](O)c2ccccc2)cc1)C(=O)O` [Compound 1g, (2R)-(+)-2-{4-[2-((2S)-2-phenyl-2-hydroxyethylamino)ethyl]phenoxy}propionic acid] are more than 5000 nM, -73%, 176 ± 20 nM, “inverse agonist activity” and more than 7000 nM.
For `C[C@@H](Oc1ccc(CCNC[C@H](O)c2ccccc2)cc1)C(=O)O` [Compound 1h, (2R)-(−)-2-{4-[2-((2R)-2-phenyl-2-hydroxyethylamino)ethyl]phenoxy}propionic acid], the Ki in experiment [1] (setting [4]) was more than 5000 nM. In experiment [2], the Emax was determined as 35% and the EC50 worked out at 107 ± 37 nM. In experiment [3] (setting [5]), the Ki was more than 7000 nM.
In experiment [1], `C[C@H](NCCc1ccc(O[C@H](C)C(=O)O)cc1)[C@@H](O)c1ccccc1` [Compound 1k, (R)-2-[4-[2-((1S,2S)-1-hydroxy-1-phenylpropan-2-yl-amino)ethyl]phenoxy]propionic acid] yielded a Ki of more than 5000 nM. Moreover, in experiment [2], the Emax was found to be 53% and the EC50 amounted to 1.97 ± 0.9 nM. In addition, the Ki in experiment [3] is more than 7000 nM.
Consider `COc1ccc(S(=O)(=O)N2CCN(C[C@H](O)COc3ccccc3)CC2)cc1` [Compound 2a, (S)-2-hydroxy-3-[4-(4-methoxyphenylsulfonyl)piperazin-1-yl]-1-phenoxy propane], for which, in experiment [1] (setting [4]), the Ki was more than 5000 nM. In experiment [2], the Emax came to 58% and the EC50 turned out to be 5 ± 1.9 nM. In experiment [3] (setting [5]), the Ki was more than 7000 nM.
Take `COc1ccc(S(=O)(=O)N2CCN(C[C@H](O)COc3ccc(O)cc3)CC2)cc1` [Compound 2b, (S)-2-hydroxy-1-(4-hydroxyphenoxy)-3-[4-(4-methoxyphenylsulfonyl)piperazin-1-yl]propane]: in experiment [1] (setting [4]), the Ki is more than 5000 nM. In experiment [2], the Emax worked out at 67% and it took 1.97 ± 0.92 nM to reach a half-maximal effect (EC50). Also, the Ki in experiment [3] (setting [5]) is more than 7000 nM.
In the same order, the values of `COc1ccc(S(=O)(=O)N2CCN(C[C@H](O)COc3ccc(OCc4ccccc4)cc3)CC2)cc1` [Compound 2c, (S)-1-(4-benzyloxyphenoxy)-2-hydroxy-3-[4-(4-methoxybenzenesulfonyl)piperazin-1-yl]propane] are more than 5000 nM, 48%, 8.3 ± 1.94 nM and more than 7000 nM.
In the same order, the values of `COc1ccc(S(=O)(=O)N2CCN(C[C@H](O)COc3cccc([N+](=O)[O-])c3)CC2)cc1` [Compound 2d, (S)-2-hydroxy-3-[4-(4-methoxyphenylsulfonyl)piperazin-1-yl]-1-(3-nitrophenoxy)-propane] are more than 5000 nM, 84%, 4.1 ± 1.93 nM and more than 7000 nM.
For the compound `COc1ccc(S(=O)(=O)N2CCN(C[C@H](O)COc3cccc(N)c3)CC2)cc1` [Compound 2e, (S)-1-(3-aminophenoxy)-2-hydroxy-3-[4-(4-methoxyphenylsulfonyl)piperazin-1-yl]propane], the Ki in experiment [1] (setting [4]) is more than 5000 nM; in experiment [3] (setting [5]), more than 7000 nM.
In the case of `COc1ccc(S(=O)(=O)N2CCN(C[C@H](O)COc3cccc4ccccc34)CC2)cc1` [Compound 2i, (S)-2-hydroxy-1-(napht-1-yloxy)-3-[4-(4-methoxyphenylsulfonyl)piperazin-1-yl)propane], the Ki was more than 2000 nM in experiment [1] (setting [4]) and more than 7000 nM in experiment [3] (setting [5]). Besides, the Emax in experiment [2] turned out to be 43%. Besides, it took 5.24 ± 1.08 nM to reach a half-maximal effect in experiment [2] (EC50).
In the same order, the values of `COc1ccc(S(=O)(=O)N2CCN(C[C@H](O)COc3cccc4[nH]c5ccccc5c34)CC2)cc1` [Compound 2j, (S)-1-(Carbazol-4-yloxy)-2-hydroxy-3-[4-(4-methoxybenzenesulfonyl)piperazin-1-yl)propane] are 177 nM, more than 7000 nM, 38% and 3.8 ± 1.8 nM.

Values taken from patent publication US8354412B2, “Beta-3 receptor ligands and their use in therapy” (Universita' Degli Studi di Bari, priority 2006, dated 2013).
